One experiment relates to EPHHL. In words: Post-emergence herbicidal action against weed plants. In kind it is in vivo, Euphorbia heterophylla. Conditions: dose 12.5 g a.c./ha, scored after 3 to 4 weeks under glass. Here is the method:
(§1) [table] 2. Post-emergence Herbicidal Action Against Weed Plants Seeds of monocotyledonous and dicotyledonous weed plants are set out in cardboard pots in sandy loam soil, covered with soil, and cultivated under glass under good growth conditions. Two to three weeks after sowing, the trial plants are treated at the three-leaf stage. The compounds according to the invention, formulated as wettable powders or as emulsifiable concentrates, are sprayed onto the surface of the green parts of the plants, at a water application rate of 600 to 800 l/ha (converted). After the trial plants have stood for 3 to 4 weeks under optimum growth conditions under glass, the action of the compounds according to the invention is scored in comparison to compounds disclosed in the prior art.

The test system of experiment [1] is PHBPU. The description is as above. Conditions: scored after 3 to 4 weeks under glass. In kind it is in vivo, Pharbitis purpureum. The protocol:
as §1

A further experiment concerns VIOTR. The experiment is described as follows: Pre-emergence herbicidal action against weed plants. Conditions: dose 320 g a.c./ha, scored after 3 to 4 weeks under glass. It counts as in vivo, Viola tricolor. An excerpt: (§2) Water-dispersible granules are also obtained by homogenizing and precomminuting, in a colloid mill, • 25 parts by weight of a compound of the formula (I), • 5 parts by weight of sodium 2,2′-dinaphthylmethane-6,6′-disulfonate, • 2 parts by weight of sodium oleoylmethyltaurinate, • 1 part by weight of polyvinyl alcohol, • 17 parts by weight of calcium carbonate and • 50 parts by weight of water, subsequently grinding the mixture in a bead mill and atomizing and drying the resulting suspension in a spray tower by means of a single-fluid nozzle. C. BIOLOGICAL EXAMPLES 1. Pre-emergence Herbicidal Action Against Weed Plants
(§3) Seeds or rhizome sections of mono- and dicotyledonous weed plants are set out in pots of 9 to 13 cm in diameter, in sandy loam soil, and are covered with soil. The herbicides, formulated as emulsifiable concentrates or dusts, are applied to the surface of the covering earth in the form of aqueous dispersions or suspensions or emulsions, at a water application rate of 300 to 800 l/ha (converted). The pots are then maintained under glass under optimum conditions for the further cultivation of the plants. After 3 to 4 weeks under optimum growth conditions under glass, the trial plants are scored for the effect of the compounds according to the invention in comparison to compounds disclosed in the prior art.

Experiment [2] relates to PHBPU. The description is as above. In kind it is in vivo, Pharbitis purpureum. The following applies: dose 320 g a.c./ha, scored after 3 to 4 weeks under glass.
Description: as §2, §3

The subject of experiment [3] is ALOMY. The experiment is described as above. It counts as in vivo, Alopecurus myosuroides. Conditions: dose 320 g a.c./ha, scored after 3 to 4 weeks under glass.
Description: as §2, §3

A further experiment relates to PAPRH. The experiment is described as follows: Post-emergence herbicidal action against weed plants. It counts as in vivo, Papaver rhoeas. Conditions: dose 50 g a.c./ha, scored after 3 to 4 weeks under glass. The protocol:
as §1

The subject of a further experiment is MATIN. The experiment is described as above. In kind it is in vivo, Matricaria inodora. Conditions: dose 50 g a.c./ha, scored after 3 to 4 weeks under glass. Here is the method:
as §1

Another experiment relates to POLCO. In words: Pre-emergence herbicidal action against weed plants. In kind it is in vivo, Polygonum convolvulus. The following applies: dose 320 g a.c./ha, scored after 3 to 4 weeks under glass.
Description: as §2, §3

A further experiment has as its system CYPES. The description is as above. Conditions: dose 320 g a.c./ha, scored after 3 to 4 weeks under glass. In kind it is in vivo, Cyperus serotinus.
Description: as §2, §3

Experiment [4] concerns ALOMY. In words: Post-emergence herbicidal action against weed plants. The following applies: dose 80 g a.c./ha, scored after 3 to 4 weeks under glass. It counts as in vivo, Alopecurus myosuroides. The protocol:
as §1

Experiment [5] has as its system AMARE. In words: Pre-emergence herbicidal action against weed plants. It counts as in vivo. The following applies: dose 320 g a.c./ha, scored after 3 to 4 weeks under glass.
Description: as §2, §3

The subject of experiment [6] is LOLMU. The experiment is described as follows: Post-emergence herbicidal action against weed plants. It counts as in vivo, Lolium multiflorum. Conditions: dose 80 g a.c./ha, scored after 3 to 4 weeks under glass. The protocol: as §1
For the next experiment, the system named is ABUTH. The description is as above. In kind it is in vivo, Abutilon theophrasti. The following applies: dose 80 g a.c./ha, scored after 3 to 4 weeks under glass. The protocol: as §1
Experiment [7] deals with AMARE. Described as above. In kind it is in vivo. The following applies: dose 80 g a.c./ha, scored after 3 to 4 weeks under glass. Here is the method: as §1, with “2.” for “[table] 2.”
Experiment [8] deals with LOLMU. The experiment is described as follows: Pre-emergence herbicidal action against weed plants. It counts as in vivo, Lolium multiflorum. The following applies: dose 320 g a.c./ha, scored after 3 to 4 weeks under glass.
Description: as §2, §3

`Cc1c(C(=O)c2cnn(C)c2O)ccc(C(F)(F)F)c1S(C)(=O)=O`: the “Herbicidal action against EPHHL” value in the experiment with EPHHL was 45%. In addition, the “Herbicidal action against PHBPU” value in the experiment with PHBPU [1] (dose 12.5 g a.c./ha) was 50%.

For the compound `Cc1c(C(=O)c2cnn(C)c2O)ccc(C(F)(F)F)c1[S+](C)[O-]` (stereo not shown), the “Herbicidal action against VIOTR” value with VIOTR was 90%. Also, in the experiment on PHBPU [2], the “Herbicidal action against PHBPU” value worked out at 50%. In addition, the “Herbicidal action against ALOMY” value with ALOMY [3] came out at 70%. Besides, the “Herbicidal action against PAPRH” value in the experiment with PAPRH came out at 55%. Besides, the “Herbicidal action against MATIN” value in the experiment on MATIN turned out to be 74%.

Take `CCn1ncc(C(=O)c2ccc(C(F)(F)F)c(S(C)(=O)=O)c2C)c1O`: the “Herbicidal action against POLCO” value in the experiment with POLCO worked out at 60%. Also, the “Herbicidal action against CYPES” value with CYPES was determined as 60%. Moreover, in the experiment on ALOMY [3], the “Herbicidal action against ALOMY” value is 50%.

Consider `CCn1ncc(C(=O)c2ccc(C(F)(F)F)c([S+](C)[O-])c2C)c1O` (stereo not shown), for which the “Herbicidal action against PHBPU” value with PHBPU [2] is 0%; with PHBPU [1] (dose 80 g a.c./ha) it was 80%. The “Herbicidal action against ALOMY” value turned out to be 70% in the experiment with ALOMY [3] and 60% with ALOMY [4].

On to `Cc1nn(C)c(O)c1C(=O)c1ccc(C(F)(F)F)c(S(C)(=O)=O)c1C`, for which the “Herbicidal action against CYPES” value with CYPES was 50%. In the experiment with ALOMY [3], the “Herbicidal action against ALOMY” value was found to be 50%. Also, the “Herbicidal action against AMARE” value in the experiment with AMARE [5] is 90%.

Take `Cc1nn(C)c(O)c1C(=O)c1ccc(C(F)(F)F)c([S+](C)[O-])c1C` (stereo not shown): the “Herbicidal action against LOLMU” value with LOLMU [6] is reported as 30%; in the experiment on LOLMU [8], 60%. Moreover, the “Herbicidal action against VIOTR” value in the experiment with VIOTR came to 40%. In addition, in the experiment on ABUTH, the “Herbicidal action against ABUTH” value amounted to 80%. Moreover, the “Herbicidal action against ALOMY” value with ALOMY [3] is reported as 60%. The “Herbicidal action against AMARE” value in the experiment with AMARE [7] is recorded as 50%.

In the case of `Cc1c(C(=O)C2C(=O)C3CCC(C3)C2=O)ccc(C(F)(F)F)c1[S+](C)[O-]` (stereo not shown) [inventive compound No. 1-9], the “Herbicidal action against LOLMU” value with LOLMU [6] amounted to 80%; with LOLMU [8] it was 90%. For the same compound, the “Herbicidal action against VIOTR” value with VIOTR turned out to be 100%. Also, the “Herbicidal action against PHBPU” value in the experiment with PHBPU [2] is 80%; in the experiment with PHBPU [1] (dose 80 g a.c./ha) it was 90%. For the same compound, the “Herbicidal action against ABUTH” value with ABUTH was 100%. The “Herbicidal action against ALOMY” value came out at 100% with ALOMY [3] and 80% in the experiment with ALOMY [4]. Moreover, the “Herbicidal action against AMARE” value in the experiment on AMARE [7] worked out at 90%. Further, the “Herbicidal action against PAPRH” value in the experiment with PAPRH is 95%. In addition, in the experiment on MATIN, the “Herbicidal action against MATIN” value was 95%.

Regarding `Cc1c(C(=O)C2C(=O)C3CCC(C3)C2=O)ccc(C(F)(F)F)c1S(C)(=O)=O` (stereo not shown) [inventive compound No. 1-17], in the experiment with POLCO, the “Herbicidal action against POLCO” value turned out to be 100%. The “Herbicidal action against CYPES” value in the experiment with CYPES is on record as 90%. In addition, the “Herbicidal action against ALOMY” value in the experiment on ALOMY [3] came out at 90%. Besides, the “Herbicidal action against EPHHL” value in the experiment with EPHHL was 85%. In the experiment on PHBPU [1] (dose 12.5 g a.c./ha), the “Herbicidal action against PHBPU” value is on record as 85%. In addition, the “Herbicidal action against AMARE” value in the experiment on AMARE [5] amounted to 100%.

(Values after patent publication US8563779B2, “(4-trifluoromethyl-3-thiobenzoyl)cyclohexanediones and use thereof as herbicides” (Bayer CropScience AG, priority 2010, dated 2013).)
